These results are taken from publication PMC9317670, “Temporal and Wash-Out Studies Identify Medicines for Malaria Venture Pathogen Box Compounds with Fast-Acting Activity against Both Trypanosoma cruzi and Trypanosoma brucei” (Microorganisms, 2022).

Each structure is given as a SMILES string.

In data set [1] the test system is T. cruzi. Put plainly: T. cruzi temporal image-based assay, 24 h exposure. It is filed as cell-based, Trypanosoma cruzi.
The test system of data set [2] is bovine peripheral blood mononuclear cells (PBMCs). Details: method as in PMID 30771616. The following applies: 24 h incubation; ref [55]; read-out: IC50 against bovine PBMCs; cited from earlier work.
For a further data set, the system named is T. cruzi and T.b. brucei. Put plainly: Speed of action and cidality classification from temporal and wash off assays. It is filed as cell-based, Trypanosoma cruzi, Trypanosoma brucei brucei.
Data set [3] has as its system T. cruzi Tulahuen strain parasites in 3T3 host cells. Kind of data set: T. cruzi 48 h image-based assay. It is filed as cell-based, Trypanosoma cruzi. Particulars: 48 h.
Another data set relates to HEPG2 cells. Put plainly: HEPG2 cytotoxicity assay. It is filed as cell-based, human. Particulars: HEPG2, 72 h; NA = not active; highest dose 79 µM unless given; read-out: IC50 (HEP) (converted).
The test system of data set [4] is T. cruzi. Put plainly: T. cruzi compound wash off assay (48 h with compound, wash off, 72 h without). In kind it is cell-based, Trypanosoma cruzi. Particulars: T. cruzi; 48 h incubation, wash off, further 72 h; read-out: IC50 Wash Off.
In data set [5] the test system is T.b. brucei. Kind of data set: T.b. brucei temporal viability (time-kill) assay, 48 h, PrestoBlue. In kind it is cell-based, Trypanosoma brucei brucei.
Data set [6] relates to T.b. brucei bloodstream 427 strain parasites. Kind of data set: T.b. brucei 72 h REDOX-based (resazurin) viability assay. In kind it is cell-based, Trypanosoma brucei brucei. The following applies: 72 h.
In a further data set the test system is HEK293 cells. Kind of data set: HEK293 cytotoxicity assay. It is filed as cell-based, human. Particulars: HEK293, 72 h; NA = not active; highest dose 79 µM unless given.
The test system of data set [7] is T.b. brucei. Put plainly: T.b. brucei temporal viability (time-kill) assay, 24 h, PrestoBlue. It is filed as cell-based, Trypanosoma brucei brucei. The protocol:
Time-kill assays was undertaken as previously described, using the REDOX reagent PrestoBlue® [24]. […] Control compounds were added at the same concentrations at outlined for the resazurin-based assays.

For data set [8] the following is noted: control drugs; ref DrugBank; cited from earlier work.
The conditions of data set [9]: ref [8]; cited from earlier work.
For another data set, the system named is T.b. rhodesiense STIB900. Put plainly: T.b. rhodesiense STIB900 assay, 72 h. In kind it is cell-based. Particulars: Trypanosoma brucei, 72 h, read-out: IC50 T. bR (T.b. rhodesiense).

The IC50 is the concentration that gives 50% inhibition. In general, LogP refers to the decadic logarithm of the partition coefficient of the neutral form, usually between octanol and water.

Take `O=C(Nc1ccc(F)c(-c2nc3ncc(-c4ccccc4)cc3[nH]2)c1)N1CCCC1` [MMV 688372]: in the data set on T. cruzi [1], the “Emax 24 h T. cruzi” value is 75%. For the same compound, the IC50 is 1.6 ± 0.064 µM in the data set with T. cruzi [1] (NA = not active at given concentration, read-out: IC50 24 h T. cruzi); 5.3 µM in [2]; 0.13 ± 0.0097 µM in data set [3] (read-out: IC50 (T. cruzi)); 3.6 µM in the data set on HEPG2 cells; 0.13 ± 0.0029 µM in the data set with T. cruzi [4]; 0.013 ± 0.00032 µM in the data set on T.b. brucei [5] (read-out: IC50 48 h T.b. brucei). For the same compound, the IC50 in data set [6] came to 0.014 ± 0.0024 µM; with HEK293 cells, 1.8 ± 0.0502 µM; in the data set with T.b. brucei [7] (read-out: IC50 24 h T.b. brucei), 0.034 ± 0.002 µM. Besides, in the data set with T. cruzi and T.b. brucei (TC = T. cruzi, TBB = T.b. brucei), the “Speed of Action (FA/SA)” value is reported as “SA (TC)”. For the same compound, the “Speed of Action (Table 5)” value in the data set with T. cruzi and T.b. brucei (prioritised compounds, Fast/Slow) is “Slow”. For the same compound, the “Emax % (T. cruzi)” value in data set [3] was 99%; in [3] (listed as MMV688372), greater than 95%. Further, in the data set with T.b. brucei [5], the “Emax 48 h T.b. brucei” value is listed as 100%. Moreover, the “Emax % (T.b. brucei)” value in data set [6] came out at 99%. Also, the “Emax 24 h T.b. brucei” value with T.b. brucei [7] was 83%.

`Nc1nc(N)nc(Nc2ccc([As]3SCC(CO)S3)cc2)n1` (stereo not drawn) [Melarsoprol, reference compound]: the lipophilicity (LogP) in data set [8] is recorded as 1.3. Besides, in data set [9], the “Fatality among patients in which encephalopathy develops” value is 50% and the “Post-treatment reactive encephalopathy, share of all treated cases” value is on record as 5–10%. Besides, the IC50 with T.b. rhodesiense STIB900 came out at 0.015 ± 0.004 µM.
